# Literature values in patent US20110171184A1, “Method for Introducing a Pna Molecule Conjugated to a Positively Charged Peptide into the Cytosol and/or the Nucleus by Photochemical Internalisation (Pci)” (PCI Biotech AS, priority 2004, published 2011).
# Ends that are not written are not given here.
# Test system: cells
# Details: 10 μM, after 24 hours, no PCI
substance,measurement,value
scrambled NLS sequence (SEQ ID NO:4 KKVKPKR) conjugated to PNA: PNA conjugated to scrambled NLS sequence KKVKPKR (Cutrona et al.) (also: conjugated to PNA),presence of PNA in the nucleus,only minimal amounts of PNA in the nucleus
